From patent publication US20240336573A1, “COMPOUND FOR THE TREATMENT AND PROPHYLAXIS OF INFECTIOUS DISEASES” (Eberhard Karls Universität Tübingen Medizinische Fakultät, priority 2021, published 2024)

Assays:
SurA [1] = target: T1, SurA (Escherichia coli, UniProt P0ABZ6); experiment: nanoDSF of QHL compounds (Tycho); format: binding, E. coli; design: key: An increase of the inflection points in the nanoDSF experiments is indicated by (+); a decrease by (−); no changes with (none); ambiguity with a question mark (?); conditions: re-evaluation; 100 μM compound, 2 μM SurA, 40 mM HEPES pH 7.4
T1 sequence (P0ABZ6 21-428): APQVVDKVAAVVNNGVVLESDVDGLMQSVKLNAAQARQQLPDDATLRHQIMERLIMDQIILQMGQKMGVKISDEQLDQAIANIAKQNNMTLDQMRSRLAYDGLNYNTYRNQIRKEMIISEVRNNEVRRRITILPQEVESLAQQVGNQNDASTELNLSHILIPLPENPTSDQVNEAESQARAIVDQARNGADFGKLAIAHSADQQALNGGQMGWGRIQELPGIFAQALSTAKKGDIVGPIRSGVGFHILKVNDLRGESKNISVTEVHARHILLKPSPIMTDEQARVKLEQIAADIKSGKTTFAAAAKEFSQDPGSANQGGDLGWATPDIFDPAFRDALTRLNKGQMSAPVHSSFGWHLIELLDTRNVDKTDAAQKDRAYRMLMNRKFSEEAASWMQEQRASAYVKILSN
Procedure: Nano Differential Scanning Fluorimetry (nanoDSF) measurements of the QHL (qualified hit list) compounds provided by the ELF were performed on a Tycho system (NanoTemper).

luciferase = luciferase (Photinus pyralis, UniProt P08659); experiment: Primary assay buffer control: interference with Luciferase per se; format: biochemical, firefly; design: key: no influence on Luc activity = 0; enhances Luc activity = +; reduces Luc activity = −
Sequence of luciferase (P08659 whole entry): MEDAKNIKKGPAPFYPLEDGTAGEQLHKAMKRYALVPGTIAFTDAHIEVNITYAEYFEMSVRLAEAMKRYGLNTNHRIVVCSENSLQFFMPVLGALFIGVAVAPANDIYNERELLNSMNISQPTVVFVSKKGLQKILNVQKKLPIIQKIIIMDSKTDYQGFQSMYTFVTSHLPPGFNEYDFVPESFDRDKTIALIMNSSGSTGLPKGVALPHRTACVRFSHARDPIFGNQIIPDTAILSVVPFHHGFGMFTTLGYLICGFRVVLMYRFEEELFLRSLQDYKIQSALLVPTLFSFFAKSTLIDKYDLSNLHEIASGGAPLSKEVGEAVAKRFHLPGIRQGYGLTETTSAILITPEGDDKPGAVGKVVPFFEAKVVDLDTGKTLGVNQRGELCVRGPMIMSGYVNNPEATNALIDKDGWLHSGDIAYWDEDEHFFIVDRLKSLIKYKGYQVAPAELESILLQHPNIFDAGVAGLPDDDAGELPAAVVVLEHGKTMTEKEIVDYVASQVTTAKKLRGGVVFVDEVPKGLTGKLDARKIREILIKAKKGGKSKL
Procedure: In short, the Luciferase based SurA activity assay was performed in SurA Activity Assay Buffer (40 mM HEPES pH 7.4, 20 mM MgSO4, 0.5 g/I BSA). SurA aliquots were thawn at RT, activated by mild heat treatment and cooled down to RT for 10 min. SurA concentration was adjusted to 1.6 μM in Activity Assay Buffer (protein solution). Solution A containing 10 mM ATP as well as 0.3 mM Luciferin (Promega Beetle Luciferin, Potassium Salt) in water was prepared. Luciferase working solution was prepared by diluting 1 ml Luciferase working stock (100 nM) with 9 ml assay buffer. 33 μl of the protein solution were added to every 2nd row of a well of a 384-well PS, white, flat bottom plate. […] Subsequently, 2 μl of compound in DMSO were added in quadruplicates (4 wells each of protein solution and buffer controls). These compound solutions could contain either various compounds or different dilutions of the same compound allowing screening inhibitor activity in a dose dependent manner. After compound addition, plates were incubated 15 min at RT. After this incubation, 5 μl of Luciferase working solution were added to each well. […] Subsequently, the assay plate was cooled for 5 min at 4° C. followed by 10 min incubation at RT prior to luminescence measurement. Luminescence was measured in a TECAN infinite M200 pro plate reader for each well individually after injection of 10 μl Solution A.

SurA [2] = target: T1, SurA; experiment: Luciferase-based SurA activity assay (primary assay, in-house); format: biochemical, E. coli; design: key to primary assay SurA: SurA inhibition = +; no SurA inhibition = 0; conditions: for primary assay SurA: shelf derivatives evaluation
Excerpt: The biological function of SurA is to bind and to keep outer membrane proteins that have reached the periplasm in an unfolded but folding-competent state. The inventors' assay is based on this interaction and uses firefly Luciferase (fLuc) as a non-native substrate. […] This is exploited in the assay (FIG. 3). The loss of tertiary structure of fLuc leads to the exposure of binding sites for SurA. It is known that SurA binds selectively to a special group of substrates. These substrates have in common the specific patterns of hydrophobic amino acids that are highly enriched in the beta strands of integral outer membrane proteins. These motifs are present in OMPs of all Gram-negative bacteria and in fLuc as well. Upon mild heat treatment of fLuc and its subsequent partial unfolding, fLuc is accepted as a substrate by SurA. Of note, these intermediates served as reporter substrates to determine the activity of a […] folding chaperone. […] This interaction remains stable upon temperature reduction. Next, the temperature of the assay is reduced to room temperature and luciferase activity is subsequently measured by addition of Luciferin and ATP. In conditions without SurA, fLuc will refold into its active conformation resulting in a luminescence signal.
In short, the Luciferase based SurA activity assay was performed in SurA Activity Assay Buffer (40 mM HEPES pH 7.4, 20 mM MgSO4, 0.5 g/I BSA). SurA aliquots were thawn at RT, activated by mild heat treatment and cooled down to RT for 10 min. […] Solution A containing 10 mM ATP as well as 0.3 mM Luciferin (Promega Beetle Luciferin, Potassium Salt) in water was prepared. Luciferase working solution was prepared by diluting 1 ml Luciferase working stock (100 nM) with 9 ml assay buffer. 33 μl of the protein solution were added to every 2nd row of a well of a 384-well PS, white, flat bottom plate. […] Subsequently, 2 μl of compound in DMSO were added in quadruplicates (4 wells each of protein solution and buffer controls). These compound solutions could contain either various compounds or different dilutions of the same compound allowing screening inhibitor activity in a dose dependent manner. After compound addition, plates were incubated 15 min at RT. After this incubation, 5 μl of Luciferase working solution were added to each well. Next, the plates were incubated 25 min at 38° C. to partially unfold the Luciferase. Subsequently, the assay plate was cooled for 5 min at 4° C. followed by 10 min incubation at RT prior to luminescence measurement. Luminescence was measured in a TECAN infinite M200 pro plate reader for each well individually after injection of 10 μl Solution A.

E. coli = experiment: Vancomycin MIC in presence of compound (strain not stated); format: cell-based; conditions: in presence of 100 μM compound
Procedure: To test for the sensitizer properties of the compounds, the inventors then performed a sensitizer MIC assay. To this end, E. coli BW25113, E. coli JW2496-3, and E. coli ATCC 25922 inocula were prepared as described above. Each well of a 96-well plate was prefilled with a fixed compound concentration of 100 μM and a dilution series of Vancomycin ranging from […]. A sensitizing effect was defined as reduction of the MIC value of Vancomycin of the respective test strain.

Row | SMILES | nanoDSF(Tycho) Ti#1 (SurA [1]) | nanoDSF(Tycho) Ti#2 (SurA [1]) | primary assay Luciferase (luciferase) | Primary Assay ICmax (SurA [2]; QHL-10 derivatives, dose response up to 125 μM, n/d: no signal detected) [µM] | Primary Assay Amplitude (SurA [2]; amplitude of signal, n/d: no signal detected) | primary assay SurA (SurA [2]) | MIC (Vanco, mg/ml) (E. coli) [mg/mL]
1 | NC(=O)c1nc(Cc2ccc(OCC(=O)O)cc2)[nH]c1NC(=O)c1ccc(-c2ccccc2)cc1 [Compound 2a, 2-(4-((5-([1,1′-biphenyl]-4-carboxamido)-4-carbamoyl-1H-imidazol-2-yl)methyl)phenoxy)acetic acid] | ? | + | − | 4 | high | + | 
2 | CN(C)c1ccc(-c2nc3cc(NC(=O)Cn4cc5ccccc5n4)ccc3[nH]2)cc1 [QHL-24] | none | + | − |  |  | + | 0.256
